Test results: patent publication US12138252B2, “Multikinase inhibitors of VEGF and TGF beta and uses thereof” (AIVIVA BIOPHARMA, INC., priority 2017, dated 2024)

Legend:
TGFb1 mRNA = TGFb1 mRNA expression (qPCR) in skin of mice after LL-37 challenge; format: in vivo; conditions: LL37 induced, single intradermal injection 1.6 mg, FIG. 1
Description: (§1) In our study, mice were injected subcutaneously with 40 μL of LL-37 (3.3 mg/mL) to induce inflammatory reactions. Immediately following the LL-37 injection, axitinib, nintedanib, and lenvatinib were individually administered as a single intradermal injection (1.6 mg). LL-37 injection was repeated every 12 hours for a total of 4 injections. Endotoxin-free water and dexamethasone (3 mg/kg by intraperitoneal injection, twice), respectively, were used as negative and positive control groups.
(§2) Mice were then anaesthetized, and tissue samples of lesion sites were excised and fixed for H&E stainings and immunohistochemical analysis. Markers for inflammation (CD4 and CD8) were determined using specific antibodies. TGF beta levels are measured by mRNA expression using qPCR.

[1] = test system: LL37-induced inflammation; experiment: LL37-induced dermal inflammation model in mice, histopathology and CD4/CD8 immunostaining; format: in vivo; conditions: intradermal LL37 induction, single intradermal injection 1.6 mg, FIG. 2
Description: as §1
At 48 hours after the initial LL-37 injection, the dorsal skin was photographed, and the severity of skin lesions were scored for redness and measured for areas of involvement.
as §2
The tissue samples were analyzed for inflammation characteristics. Histopathology endpoints included inflammation, and CD4+ and CD8+ T-lymphocyte immunostaining. For inflammation scores, tissues were examined histologically and scored for inflammatory cell infiltrate.

TGF-beta 1 = experiment: Dermal TGFb1 levels (ELISA) after linear incisional wound in minipigs; format: in vivo, Gottingen Minipigs; conditions: minipig incisional wound, approximately 16 mg intradermal once, biopsies days 4, 7, 9, ELISA, FIG. 5
From the text: The purpose of this study was to evaluate the topical effects of axitinib, nintedanib, sorafenib and lenvatinib when administered via intradermal injection to the dorsal skin along linear incisions of minipigs. Linear incisional wound was made to elicit inflammatory and wound healing process in the skin. After dosing, animals were observed postdose for 9 days to assess the levels of TGFb1 expressions in the skin.
Three male Gottingen Minipigs® dosed once via intradermal injection along the edges of each of the linear incision wound sites for each animal (wounds on the dorsum, perpendicular to the spine, approximately 3 cm in length and 3 cm distance from the spine). Each incisional wound received approximately 16 mg of the test compound intradermally once along both sides of the linear wound.
On days of 4, 7, and 9 post-dosing, one 4 mm dermal punch biopsy was collected for each incisional wound and processed for TGF-beta 1 analysis with ELISA, using a commercial kit (e.g., the kit from Thermo Fisher or other vendors).

TGF beta1 mRNA = TGF beta1 mRNA expression (qRT-PCR) in rabbit ear hypertrophic scar model; format: in vivo, New Zealand white rabbits; conditions: 1% w/w 100 μl intradermal on days 15 and 29, Day 43, FIG. 6
Description: (§3) The objective of this study was to examine the effect of test compounds on wound healing and TGF beta expression after dermal injury in a rabbit ear hypertrophic scar model.
(§4) In New Zealand white rabbits, maintained under a surgical plane of anesthesia, trauma stimulation of the skin on the ventral surface of both ears is initiated on Day 1. Trauma sites are evaluated on Days 8, 15, 22, 29, 36, and 43. On days 15 and 29, each site is dosed with test compounds (e.g., 1% w/w, 100 μl) by intradermal or intralesional injections.
Animals are euthanized on Day 43, and the trauma sites are harvested and frozen for TGF beta analysis using quantitative RT-PCR (qRT-PCR) (e.g., A. K. Johnson et al., Dev. Comp. Immunol., 2006; 30(5): 473-84). TGF beta1 mRNA expression levels in treated trauma samples are compared to the expression level in the untreated trauma sample.

rabbit ear wound = experiment: Histopathology of rabbit ear wound (neovascularization, fibrosis, re-epithelialization); format: in vivo, New Zealand white rabbits; set-up: key to Total Score: aggregated total of severity grades for microscopic findings; key to Neovascularization / Re-epithelialization: five-step severity grade (minimal, mild, moderate, marked, severe); conditions: intradermal 1%; for average total score of test wounds lower than untreated wounds by: difference to untreated control; for Total Score / Fibrosis/Collagen / Neovascularization / Re-epithelialization: treated mean, Day 43; for Total Score: aggregation of microscopic findings; for Fibrosis/Collagen / Neovascularization / Re-epithelialization: histology severity grade; for angiogenesis / neovascularization compared with untreated wounds (words) / fibrosis compared with untreated wounds (words): histopathology; for scar formation compared with control sites: overall
Description: as §3, §4
At necropsy, each treatment site was harvested and preserved for hematoxylin and […] and Mason's trichrome stainings. Each lesion was examined histologically and graded for neovascularization, fibrosis and re-epithelialization using a five-step/severity grading system (minimal, mild, moderate, marked, and severe). The average total score is an aggregation of these microscopic findings relating to an inflammatory response.

Compound	TGFb1 mRNA expression relative to LL37 alone (without treatment) (TGFb1 mRNA; 48 hours)	TGFb-1 mRNA expression among all treatment groups (TGFb1 mRNA)	inflammation score (inflammatory cell infiltrate) [1]	suppression of TGF beta 1 expression in skin (TGF-beta 1)	mean folds of TGF beta mRNA expression vs untreated wound sample (TGF beta1 mRNA)	average total score of test wounds lower than untreated wounds by (rabbit ear wound)	Total Score (rabbit ear wound)	Fibrosis/Collagen (rabbit ear wound)	Neovascularization (rabbit ear wound)	Re-epithelialization (rabbit ear wound)	angiogenesis / neovascularization compared with untreated wounds (words) (rabbit ear wound)	fibrosis compared with untreated wounds (words) (rabbit ear wound)	angiogenesis / neovascularization compared with untreated wounds (words) (rabbit ear wound; listed as Nintedanib)	fibrosis compared with untreated wounds (words) (rabbit ear wound; listed as Nintedanib)	scar formation compared with control sites (rabbit ear wound)	angiogenesis / neovascularization compared with untreated wounds (words) (rabbit ear wound; listed as Sorafenib)
COc1cc2nccc(Oc3ccc(NC(=O)NC4CC4)c(Cl)c3)c2cc1C(N)=O [lenvatinib]	79%	lowest TGFb-1 mRNA expression	prominent reductions	very effective	lower than the expression level in the untreated wound sample											
CNC(=O)c1ccccc1Sc1ccc2c(/C=C/c3ccccn3)n[nH]c2c1 [axitinib]						1.4	4.6	3.3	1	0.3						
COC(=O)c1ccc2c(c1)NC(=O)/C2=C(\Nc1ccc(N(C)C(=O)CN2CCN(C)CC2)cc1)c1ccccc1 [nintedanib]			prominent reductions	very effective	lower than the expression level in the untreated wound sample	1.5	4.5	3	1	0.5	decreased angiogenesis	decreased angiogenesis and fibrosis	much less neovascularization	about the same fibrosis	less scar formation	
CNC(=O)c1cc(Oc2ccc(NC(=O)Nc3ccc(Cl)c(C(F)(F)F)c3)cc2)ccn1 [sorafenib]				not as effective	lower than the expression level in the untreated wound sample		5.8	2.5	3	0.3	do not show any reduction in angiogenesis	similar, or increased fibrosis			does not appear to have reduced scar formation	slightly increased neovascularization
